Measured values taken from PubChem BioAssay AID330 (DTP/NCI, 2004).
Where “and” joins values, the source holds several entries; their conditions need not be identical. Equal values may be shown once. Toxic doses and inconclusive results are not listed.

System: P388 leukemia ip, CD2F1 mice, survival T/C
Test: NCI In Vivo Anticancer Drug Screen. Data for tumor model P388 Leukemia (intraperitoneal) in CD2F1 (CDF1) mice
Conditions: endpoint: median survival time, higher = longer survival
How it was run: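 Mice carrying the transplanted tumor received test compound or vehicle. Survival was recorded in each group, and the value is the treated-group measurement divided by that of the vehicle-treated control group.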

[1] = dose: 60.0 mg/kg/injection, schedule: Q01DX005 (ip), vehicle: Klucel (hydroxypropylcellulose) (HPC)
[2] = dose: 120.0 mg/kg/injection, schedule: Q01DX005 (ip), vehicle: Klucel (hydroxypropylcellulose) (HPC)
[3] = dose: 240.0 mg/kg/injection, schedule: Q01DX005 (ip), vehicle: Klucel (hydroxypropylcellulose) (HPC)
[4] = dose: 100.0 mg/kg/injection, schedule: Q04DX002 (ip), vehicle: Klucel (hydroxypropylcellulose) (HPC)
[5] = dose: 200.0 mg/kg/injection, schedule: Q04DX002 (ip), vehicle: Klucel (hydroxypropylcellulose) (HPC)
[6] = dose: 400.0 mg/kg/injection, schedule: Q04DX002 (ip), vehicle: Klucel (hydroxypropylcellulose) (HPC)
[7] = dose: 100.0 mg/kg/injection, schedule: Q01DX009 (ip), vehicle: saline with Tween-80
[8] = dose: 200.0 mg/kg/injection, schedule: Q01DX009 (ip), vehicle: saline with Tween-80
[9] = dose: 25.0 mg/kg/injection, schedule: Q01DX005 (ip), vehicle: saline
[10] = dose: 50.0 mg/kg/injection, schedule: Q01DX005 (ip), vehicle: saline
[11] = dose: 100.0 mg/kg/injection, schedule: Q01DX005 (ip), vehicle: saline
[12] = dose: 50.0 mg/kg/injection, schedule: Q01DX005 (ip), vehicle: Klucel (hydroxypropylcellulose) (HPC)
[13] = dose: 100.0 mg/kg/injection, schedule: Q01DX005 (ip), vehicle: Klucel (hydroxypropylcellulose) (HPC)
[14] = dose: 200.0 mg/kg/injection, schedule: Q01DX005 (ip), vehicle: Klucel (hydroxypropylcellulose) (HPC)
[15] = dose: 60.0 mg/kg/injection, schedule: Q01DX005 (ip), vehicle: saline with Tween-80
[16] = dose: 120.0 mg/kg/injection, schedule: Q01DX005 (ip), vehicle: saline with Tween-80

O=[N+]([O-])c1ccccc1S(=O)(=O)N(CCCCCN(S(=O)(=O)c1ccccc1[N+](=O)[O-])S(=O)(=O)c1ccccc1[N+](=O)[O-])S(=O)(=O)c1ccccc1[N+](=O)[O-]
T/C [1]: 89 % of control
T/C [2]: 87 % of control
T/C [3]: 87 % of control

CC(C1CC/C(=N/NC(N)=O)C1)[N+](=O)[O-] (stereo not given)
T/C (dose: 12.5 mg/kg/injection, schedule: Q01DX009 (ip), vehicle: distilled water + Tween-80): 100 % of control
T/C (dose: 25.0 mg/kg/injection, schedule: Q01DX009 (ip), vehicle: distilled water + Tween-80): 91 % of control
T/C (dose: 50.0 mg/kg/injection, schedule: Q01DX009 (ip), vehicle: distilled water + Tween-80): 90 % of control
T/C (dose: 100.0 mg/kg/injection, schedule: Q01DX009 (ip), vehicle: distilled water + Tween-80): 100 % of control
T/C (dose: 200.0 mg/kg/injection, schedule: Q01DX009 (ip), vehicle: distilled water + Tween-80): 92 % of control

C=COC(=O)C(Cc1ccc(F)cc1)NC(=O)OCc1ccccc1 (stereo not given)
T/C [4]: 103 % of control
T/C [5]: 97 % of control
T/C [6]: 97 % of control

CN(C)CCC(=O)C(=Cc1c(Cl)cccc1Cl)C(=O)CCN(C)C
T/C (dose: 7.5 mg/kg/injection, schedule: Q01DX005 (ip), vehicle: saline): 119 % of control and 120 % of control
T/C (dose: 15.0 mg/kg/injection, schedule: Q01DX005 (ip), vehicle: saline): 120 % of control and 123 % of control

CN=NNc1ccc([N+](=O)[O-])cc1
T/C (dose: 12.5 mg/kg/injection, schedule: Q01DX009 (ip), vehicle: Klucel (hydroxypropylcellulose) (HPC)): 98 % of control and 94 % of control
T/C (dose: 25.0 mg/kg/injection, schedule: Q01DX009 (ip), vehicle: Klucel (hydroxypropylcellulose) (HPC)): 103 % of control and 109 % of control
T/C (dose: 50.0 mg/kg/injection, schedule: Q01DX009 (ip), vehicle: Klucel (hydroxypropylcellulose) (HPC)): 108 % of control and 111 % of control
T/C (dose: 100.0 mg/kg/injection, schedule: Q01DX009 (ip), vehicle: Klucel (hydroxypropylcellulose) (HPC)): 112 % of control
T/C (dose: 200.0 mg/kg/injection, schedule: Q01DX009 (ip), vehicle: Klucel (hydroxypropylcellulose) (HPC)): 167 % of control

CCOc1nc(C(=O)O)cc2ccsc12
T/C (dose: 100.0 mg/kg/injection, schedule: Q01DX001 (ip), vehicle: Klucel (hydroxypropylcellulose) (HPC)): 90 % of control
T/C (dose: 200.0 mg/kg/injection, schedule: Q01DX001 (ip), vehicle: Klucel (hydroxypropylcellulose) (HPC)): 94 % of control
T/C (dose: 400.0 mg/kg/injection, schedule: Q01DX001 (ip), vehicle: Klucel (hydroxypropylcellulose) (HPC)): 96 % of control

COc1ccccc1C1COC(c2ccccc2)(c2ccccc2)S1 (stereo not given)
T/C (dose: 25.0 mg/kg/injection, schedule: Q01DX009 (ip), vehicle: saline): 108 % of control
T/C (dose: 50.0 mg/kg/injection, schedule: Q01DX009 (ip), vehicle: saline): 108 % of control
T/C (dose: 100.0 mg/kg/injection, schedule: Q01DX009 (ip), vehicle: saline): 108 % of control

COc1ccc(N=NC2C(=O)N(C(=O)c3ccncc3)N=C2C)cc1 (stereo not given)
T/C (dose: 50.0 mg/kg/injection, schedule: Q01DX009 (ip), vehicle: saline with Tween-80): 95 % of control
T/C [7]: 95 % of control
T/C [8]: 96 % of control

CC(=O)CC(C)=O.CC(=O)CC(C)=O.[Cl][Sn][c]1ccccc1
T/C [9]: 109 % of control and 116 % of control
T/C [10]: 110 % of control and 122 % of control
T/C [11]: 109 % of control and 115 % of control
T/C (dose: 200.0 mg/kg/injection, schedule: Q01DX005 (ip), vehicle: saline): 107 % of control and 111 % of control and 113 % of control

CC1=C(C)SC(=C2SC=CS2)S1
T/C (dose: 100.0 mg/kg/injection, schedule: Q04DX002 (ip), vehicle: saline with Tween-80): 102 % of control
T/C (dose: 200.0 mg/kg/injection, schedule: Q04DX002 (ip), vehicle: saline with Tween-80): 92 % of control
T/C (dose: 400.0 mg/kg/injection, schedule: Q04DX002 (ip), vehicle: saline with Tween-80): 95 % of control

CCCCC1(CCCCCCCCCO)OCCO1
T/C [4]: 101 % of control
T/C [5]: 99 % of control
T/C [6]: 100 % of control

COC(=O)NP1(=O)NCc2ccccc2CN1
T/C [12]: 100 % of control
T/C [13]: 94 % of control
T/C [14]: 94 % of control

CC1(C)CC(=O)C(C)(CCC#N)C(=O)C1
T/C (dose: 100.0 mg/kg/injection, schedule: Q04DX003 (ip), vehicle: saline): 102 % of control
T/C (dose: 200.0 mg/kg/injection, schedule: Q04DX003 (ip), vehicle: saline): 99 % of control
T/C (dose: 400.0 mg/kg/injection, schedule: Q04DX003 (ip), vehicle: saline): 99 % of control

CC(=O)Nc1ccc(OCCCN2CCOCC2)cc1
T/C [4]: 102 % of control
T/C [5]: 101 % of control
T/C [6]: 95 % of control

O=c1cn[nH]c(=O)[nH]1
T/C (dose: 62.5 mg/kg/injection, schedule: Q01DX010 (ip), vehicle: saline): 100 % of control
T/C (dose: 125.0 mg/kg/injection, schedule: Q01DX010 (ip), vehicle: saline): 91 % of control
T/C (dose: 250.0 mg/kg/injection, schedule: Q01DX010 (ip), vehicle: saline): 91 % of control

CC(C)CC1NC(=O)N(CCN(C)C)C1=O (stereo not given)
T/C (dose: 50.0 mg/kg/injection, schedule: Q01DX005 (ip), vehicle: saline with Tween-80): 100 % of control
T/C (dose: 100.0 mg/kg/injection, schedule: Q01DX005 (ip), vehicle: saline with Tween-80): 106 % of control
T/C (dose: 200.0 mg/kg/injection, schedule: Q01DX005 (ip), vehicle: saline with Tween-80): 100 % of control

c1ccc2c(c1)[nH]c1c2nc2sccn21
T/C [1]: 115 % of control
T/C [2]: 115 % of control
T/C [3]: 116 % of control

CN(C)C(C)(C)P(=O)(O)O
T/C [7]: 100 % of control
T/C [8]: 100 % of control
T/C (dose: 400.0 mg/kg/injection, schedule: Q01DX009 (ip), vehicle: saline with Tween-80): 100 % of control

CC1CC[N-]CC1.CC1CC[N-]CC1.CC1CC[N-]CC1.CC1CC[N-]CC1.CS(C)=O.CS(C)=O.[Cl-].[Cl-].[Cl-].[Cl-].[Pt+4].[Rh+3]
T/C (dose: 0.19 mg/kg/injection, schedule: Q01DX009 (ip), vehicle: saline): 98 % of control
T/C (dose: 0.38 mg/kg/injection, schedule: Q01DX009 (ip), vehicle: saline): 114 % of control
T/C (dose: 0.75 mg/kg/injection, schedule: Q01DX009 (ip), vehicle: saline): 105 % of control
T/C (dose: 1.5 mg/kg/injection, schedule: Q01DX009 (ip), vehicle: saline): 108 % of control
T/C (dose: 3.0 mg/kg/injection, schedule: Q01DX009 (ip), vehicle: saline): 115 % of control

N#CC(c1ccccc1)c1ccc2ccccc2n1 (stereo not given)
T/C [15]: 92 % of control
T/C [16]: 86 % of control

CN(C)CCN(C)c1cccc2c1C(=O)c1cscc1C2=O
T/C [9]: 100 % of control
T/C [10]: 100 % of control and 92 % of control

O=S(=O)(O/C1=C/CCCCCC1)C(F)(F)F
T/C (dose: 50.0 mg/kg/injection, schedule: Q01DX009 (ip), vehicle: olive oil, sesame oil, peanut oil): 97 % of control
T/C (dose: 100.0 mg/kg/injection, schedule: Q01DX009 (ip), vehicle: olive oil, sesame oil, peanut oil): 113 % of control
T/C (dose: 200.0 mg/kg/injection, schedule: Q01DX009 (ip), vehicle: olive oil, sesame oil, peanut oil): 103 % of control

COC(=O)/C=C1/Nc2ccc(Cl)cc2C(=O)NC1=O
T/C [15]: 95 % of control
T/C [16]: 93 % of control
T/C (dose: 240.0 mg/kg/injection, schedule: Q01DX005 (ip), vehicle: saline with Tween-80): 93 % of control

O=C(O)C1CSCN1 (stereo not given)
T/C (dose: 6.25 mg/kg/injection, schedule: Q01DX009 (ip), vehicle: water): 90 % of control and 96 % of control
T/C (dose: 12.5 mg/kg/injection, schedule: Q01DX009 (ip), vehicle: water): 99 % of control and 96 % of control
T/C (dose: 25.0 mg/kg/injection, schedule: Q01DX009 (ip), vehicle: water): 98 % of control and 99 % of control
T/C (dose: 50.0 mg/kg/injection, schedule: Q01DX009 (ip), vehicle: water): 98 % of control and 95 % of control
T/C (dose: 100.0 mg/kg/injection, schedule: Q01DX009 (ip), vehicle: water): 100 % of control
T/C (dose: 200.0 mg/kg/injection, schedule: Q01DX009 (ip), vehicle: water): 96 % of control

C[CH2][Sn]([CH2]C(=O)OC)([CH2]C(=O)OC)[c]1ccccc1
T/C [9]: 157 % of control
T/C [10]: 181 % of control
T/C [11]: 168 % of control

Cc1ccc(N2CC=C(c3ccccc3)OP2(=O)N2CC2)cc1 (stereo not given)
T/C [12]: 101 % of control
T/C [13]: 101 % of control
T/C [14]: 94 % of control
